Laboratory results as given in PubChem BioAssay (NCI).
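Test compounds were applied to cells in 96-well plates for 48 hours at 5 doses. GI50 is the concentration that inhibits growth by half. TGI: total growth inhibition.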

Key:
Experiment in all cases: growth of human tumour cells (NCI), 48 h
[1] = tested on: 786-0 renal
[2] = tested on: A498 renal
[3] = tested on: A549 NSCLC
[4] = tested on: ACHN renal
[5] = tested on: BT-549 breast
[6] = tested on: CAKI-1 renal
[7] = tested on: CCRF-CEM leukemia
[8] = tested on: COLO 205 colon
[9] = tested on: DU-145 prostate
[10] = tested on: EKVX NSCLC
[11] = tested on: HCC-2998 colon
[12] = tested on: HCT-116 colon
[13] = tested on: HCT-15 colon
[14] = tested on: HL-60(TB) leukemia
[15] = tested on: HOP-62 NSCLC
[16] = tested on: HS 578T breast
[17] = tested on: HT29 colon
[18] = tested on: IGROV1 ovarian
[19] = tested on: K-562 leukemia
[20] = tested on: KM12 colon
[21] = tested on: LOX IMVI melanoma
[22] = tested on: M14 melanoma
[23] = tested on: MALME-3M melanoma
[24] = tested on: MCF7 breast
[25] = tested on: MDA-MB-231 breast
[26] = tested on: MDA-MB-435
[27] = tested on: MOLT-4 leukemia
[28] = tested on: NCI-H226 lung
[29] = tested on: NCI-H23 lung
[30] = tested on: NCI-H460 lung
[31] = tested on: NCI-H522 lung
[32] = tested on: NCI/ADR-RES ovarian
[33] = tested on: OVCAR-3 ovarian
[34] = tested on: OVCAR-4 ovarian
[35] = tested on: OVCAR-8 ovarian
[36] = tested on: PC-3 prostate
[37] = tested on: RPMI-8226 leukemia
[38] = tested on: RXF 393 renal
[39] = tested on: SF-268 CNS
[40] = tested on: SF-295 CNS
[41] = tested on: SF-539 CNS
[42] = tested on: SK-MEL-2 melanoma
[43] = tested on: SK-MEL-28 melanoma
[44] = tested on: SK-MEL-5 melanoma
[45] = tested on: SK-OV-3 ovarian
[46] = tested on: SN12C renal
[47] = tested on: SNB-19 CNS
[48] = tested on: SNB-75 CNS
[49] = tested on: SR leukemia
[50] = tested on: SW-620 colon
[51] = tested on: T-47D breast
[52] = tested on: TK-10 renal
[53] = tested on: U251 CNS
[54] = tested on: UACC-257 melanoma
[55] = tested on: UACC-62 melanoma
[56] = tested on: UO-31 renal
[57] = tested on: HOP-92 NSCLC
[58] = tested on: OVCAR-5 ovarian

In the case of `COc1ccc(C(=O)/C=C/c2c(C(F)(F)F)nc3ccccn23)cc1OC`, the GI50 [1] is reported as 2.26 µM, the TGI [1] is reported as > 100 µM and the GI50 [2] is reported as 3.46 µM. The TGI [2] was 21.7 µM, the GI50 [3] was 3.38 µM and the TGI [3] was > 100 µM. The GI50 [4] was 2600 nM, the TGI [4] was > 39.5 µM and the GI50 [5] was 2340 nM. For the same compound, the TGI [5] was 43.4 µM, the GI50 [6] was 1710 nM and the TGI [6] was > 24.5 µM. For the same compound, the GI50 [7] was 460 nM, the TGI [7] was 22.1 µM and the GI50 [8] was 1860 nM. For the same compound, the TGI [8] was 3.95 µM, the GI50 [9] was 1300 nM and the GI50 [10] was 3390 nM. The TGI [10] was > 100 µM, the GI50 [11] was 553 nM and the TGI [11] was 2.23 µM. It also gave a GI50 [12] of 561 nM, a TGI [12] of 4.26 µM and a GI50 [13] of 1570 nM. The TGI [13] was > 100 µM, the GI50 [14] was 758 nM and the TGI [14] was 2640 nM. The GI50 [15] was 3.38 µM, the TGI [15] was > 28.4 µM and the GI50 [16] was 2310 nM. For the same compound, the TGI [16] was > 100 µM, the GI50 [17] was 786 nM and the GI50 [18] was 508 nM. For the same compound, the TGI [18] was 3.41 µM, the GI50 [19] was 0.377 µM and the TGI [19] was > 100 µM. For the same compound, the GI50 [20] was 646 nM, the TGI [20] was 7.42 µM and the GI50 [21] was 584 nM. For the same compound, the GI50 [22] was 2220 nM, the TGI [22] was > 66.7 µM and the GI50 [23] was 13.8 µM. For the same compound, the TGI [23] was > 100 µM, the GI50 [24] was 518 nM and the TGI [24] was > 100 µM. For the same compound, the GI50 [25] was 3060 nM, the TGI [25] was 8.55 µM and the GI50 [26] was 1150 nM. The TGI [26] was > 100 µM, the GI50 [27] was 711 nM and the TGI [27] was 3.24 µM. For the same compound, the GI50 [28] was 3970 nM, the TGI [28] was > 100 µM and the GI50 [29] was 1660 nM. The TGI [29] was > 26.9 µM, the GI50 [30] was 933 nM and the TGI [30] was 2.99 µM. It also gave a GI50 [31] of 133 nM, a TGI [31] of 0.929 µM and a GI50 [32] of 877 nM. For the same compound, the TGI [32] was 6.25 µM, the GI50 [33] was 2280 nM and the TGI [33] was 6.09 µM. The GI50 [34] was 3280 nM, the TGI [34] was > 48.6 µM and the GI50 [35] was 1060 nM. The TGI [35] was > 25.1 µM, the GI50 [36] was 2730 nM and the TGI [36] was > 100 µM. For the same compound, the GI50 [37] was 362 nM, the TGI [37] was 1.67 µM and the GI50 [38] was 1970 nM. The TGI [38] was 8.68 µM, the GI50 [39] was 2070 nM and the TGI [39] was > 24.7 µM. It also gave a GI50 [40] of 3150 nM, a TGI [40] of 42.5 µM and a GI50 [41] of 2140 nM. It also gave a GI50 [42] of 1720 nM, a TGI [42] of 5.09 µM and a GI50 [43] of 7.1 µM. For the same compound, the TGI [43] was > 100 µM, the GI50 [44] was 2100 nM and the TGI [44] was 20.1 µM. The GI50 [45] was 2380 nM, the TGI [45] was 6.13 µM and the GI50 [46] was 3.53 µM. The TGI [46] was > 100 µM, the GI50 [47] was 3.77 µM and the TGI [47] was > 22 µM. It also gave a GI50 [48] of 2.01 µM, a TGI [48] of 6.77 µM and a GI50 [49] of 272 nM. The TGI [49] was 964 nM, the GI50 [50] was 527 nM and the TGI [50] was > 100 µM. The GI50 [51] was 1780 nM, the TGI [51] was 6.21 µM and the GI50 [52] was 2070 nM. The TGI [52] was > 20.6 µM, the GI50 [53] was 1100 nM and the TGI [53] was > 100 µM. The GI50 [54] was 2430 nM, the TGI [54] was > 100 µM and the TGI [55] was > 100 µM. The GI50 [56] was 1620 nM and the TGI [56] was 29.5 µM.
In the case of `COc1ccc(Cl)cc1Nc1nc(C(F)(F)F)ccc1C(=O)N/N=C/c1ccccc1Cl`, the GI50 [1] is reported as 4.66 µM, the TGI [1] is reported as > 23 µM and the GI50 [2] is reported as 3.44 µM. For the same compound, the TGI [2] was 19.5 µM, the GI50 [3] was 3.53 µM and the TGI [3] was 18.5 µM. For the same compound, the GI50 [4] was 2010 nM, the TGI [4] was > 25.4 µM and the GI50 [5] was 1790 nM. For the same compound, the TGI [5] was 8.82 µM, the GI50 [6] was 994 nM and the TGI [6] was 8.19 µM. The GI50 [7] was 446 nM, the TGI [7] was 2.79 µM and the GI50 [8] was 1700 nM. The TGI [8] was 4.18 µM, the GI50 [9] was 3940 nM and the TGI [9] was > 25.6 µM. For the same compound, the GI50 [10] was 2040 nM, the TGI [10] was 7.22 µM and the GI50 [11] was 1970 nM. For the same compound, the TGI [11] was 19.2 µM, the GI50 [12] was 2810 nM and the TGI [12] was > 100 µM. The GI50 [13] was 754 nM, the TGI [13] was > 63.8 µM and the GI50 [14] was 2740 nM. The TGI [14] was > 19700 nM, the GI50 [15] was 7.7 µM and the TGI [15] was > 29.2 µM. For the same compound, the GI50 [57] was 2340 nM, the TGI [57] was 12.6 µM and the GI50 [16] was 3200 nM. The TGI [16] was 40.7 µM, the GI50 [17] was 4240 nM and the TGI [17] was > 100 µM. The GI50 [18] was 2760 nM, the TGI [18] was > 24.7 µM and the GI50 [19] was 10.7 µM. For the same compound, the TGI [19] was > 21.8 µM, the GI50 [20] was 2810 nM and the TGI [20] was > 28 µM. For the same compound, the GI50 [21] was 1640 nM, the TGI [21] was 12.8 µM and the GI50 [22] was 2130 nM. For the same compound, the TGI [22] was 19.4 µM, the GI50 [23] was 1.75 µM and the TGI [23] was 9.54 µM. For the same compound, the GI50 [24] was 1040 nM, the TGI [24] was 5.34 µM and the GI50 [25] was 2090 nM. For the same compound, the TGI [25] was 10.9 µM, the GI50 [26] was 2610 nM and the TGI [26] was > 27.7 µM. It also gave a GI50 [27] of 1880 nM, a GI50 [28] of 1450 nM and a TGI [28] of 18.2 µM. For the same compound, the GI50 [29] was 2990 nM, the TGI [29] was > 31.4 µM and the GI50 [30] was 1130 nM. For the same compound, the TGI [30] was 4.53 µM, the GI50 [31] was 2740 nM and the TGI [31] was 16 µM. The GI50 [32] was 2830 nM, the TGI [32] was > 28.4 µM and the GI50 [33] was 1040 nM. The TGI [33] was 3.75 µM, the GI50 [34] was 1930 nM and the TGI [34] was > 100 µM. For the same compound, the GI50 [58] was 3.55 µM, the TGI [58] was 54 µM and the GI50 [35] was 2400 nM. The TGI [35] was > 31 µM, the GI50 [36] was 2840 nM and the TGI [36] was > 100 µM. It also gave a GI50 [37] of 2170 nM, a TGI [37] of 6.81 µM and a GI50 [38] of 455 nM. For the same compound, the TGI [38] was 3.06 µM, the GI50 [39] was 2220 nM and the TGI [39] was > 23.2 µM. For the same compound, the GI50 [40] was 270 nM, the TGI [40] was 1.36 µM and the GI50 [41] was 1850 nM. For the same compound, the TGI [41] was 5.03 µM, the GI50 [42] was 3450 nM and the TGI [42] was > 28.4 µM. For the same compound, the GI50 [43] was 4.5 µM, the TGI [43] was > 100 µM and the GI50 [44] was 583 nM. It also gave a TGI [44] of 2.96 µM, a GI50 [45] of 1580 nM and a TGI [45] of 12.5 µM. The GI50 [46] was 2.56 µM, the TGI [46] was > 100 µM and the GI50 [47] was 2.34 µM. For the same compound, the TGI [47] was > 55.7 µM, the GI50 [48] was 7.32 µM and the TGI [48] was > 100 µM. The GI50 [50] was 3300 nM, the TGI [50] was > 100 µM and the GI50 [51] was 1710 nM. It also gave a TGI [51] of 7.68 µM, a GI50 [52] of 442 nM and a TGI [52] of 4.61 µM. The GI50 [53] was 1570 nM, the TGI [53] was > 31 µM and the GI50 [54] was 1820 nM. It also gave a TGI [54] of 4.62 µM, a GI50 [55] of 1930 nM and a TGI [55] of 9.83 µM. For the same compound, the GI50 [56] was 3180 nM and the TGI [56] was > 26.8 µM.
